Test results from US20160039880A1 (priority 2012, published 2016).
In brackets after ≈: the same amount, converted by molar mass. Like-named read-outs stand apart in the source and are kept apart here.

Legend:
[1] = biological target: Human recombinant cyclophilin A (Cyp A) (Homo sapiens, UniProt P62937); assay: Protease-free PPIase assay;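 also: cis to trans isomerization of SUC-AAPF-pNA by 2 nM enzyme, read as absorbance at 330 nm over 300 s at 10 °C, catalytic rate corrected for uncatalyzed background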
Calcineurin = Calcineurin (Homo sapiens, UniProt P62937+P63098+Q08209); assay: Calcineurin Phosphatase (CaN) Assay with Cyp A (+CypA); conditions: for IC50: read-out: Calcineurin Phosphatase (CaN) Assay (+CypA) IC50, in the presence of Cyp A
[2] = Water Solubility Assay (measured in pH 7.8 buffer); type: physicochemical; conditions: 35 mM HEPES buffer pH 7.8, 25 °C, aqueous buffer, kinetic from dmso stock; pH 7.8 buffer; read-out: Water Solubility Assay;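 also: precipitation onset detected as rise in absorbance at 650 nm across increasing concentrations, after shaking for 18 h, blank wells receiving DMSO only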
Procedure: The aqueous solubility of a compound of Formula I in buffer (pH 7.8) was measured by recording the onset of precipitation of the compound as a function of increasing concentration. The onset of precipitation, if it occurred, was detected by an increase in absorbance at 650 nm.
Assay Buffer: 35 mM HEPES pH 7.8
Stock solutions of Control and Test Compounds: 10 mM in 100% DMSO
10 mM stock solutions of control and test compounds were prepared in 100% DMSO.
Assay buffer (247.5 μl) was placed into flat bottomed transparent 96-well plate. For blank samples DMSO (2.5 μl) was added. For test and control samples 2.5 μl of the appropriate DMSO dilution stocks were added to the appropriate well. All test and control compounds were performed in triplicate.
The plates were sealed with adhesive plate seal and shaken at 250 rpm at 25° C. for 18 h on a plate shaker.
After incubation the plate seals were taken off and any bubbles observed in wells removed. The plates were read on a SpectraMaxM5 with a 5 s pre-shake at 650 nm.
Data files were transferred to the appropriate worksheet and the solubility range of the compounds was calculated from the data.

[3] = read-out: Protease-free PPIase Assay Ki, Cyclophilin A (Cyp A) inhibitory activity
[4] = read-out: Protease-free PPIase Assay Ki, cyclophilin A, 10 °C

Sequence of Human recombinant cyclophilin A (Cyp A) (P62937 whole entry): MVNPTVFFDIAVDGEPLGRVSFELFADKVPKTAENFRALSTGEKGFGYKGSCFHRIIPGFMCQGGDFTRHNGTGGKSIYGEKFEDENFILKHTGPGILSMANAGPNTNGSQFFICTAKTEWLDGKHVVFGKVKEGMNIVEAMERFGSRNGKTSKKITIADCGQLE
Sequence of Calcineurin (P63098 whole entry, other chains not shown): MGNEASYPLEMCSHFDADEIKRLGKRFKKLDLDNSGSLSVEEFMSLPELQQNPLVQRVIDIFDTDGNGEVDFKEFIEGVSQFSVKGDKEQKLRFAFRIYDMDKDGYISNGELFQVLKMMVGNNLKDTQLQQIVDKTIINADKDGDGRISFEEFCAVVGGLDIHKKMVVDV
Sequence of Calcineurin (P62937 whole entry, other chains not shown): as the sequence (P62937 whole entry) above

| SMILES | Ki [1, 3] [nM] | IC50 (Calcineurin) [nM] | Ki [1, 4] [nM] | IC50 (Calcineurin; 1:1 complex with inhibitor) [nM] | also measured |
| --- | --- | --- | --- | --- | --- |
| CCC1NC(=O)C(C(O)C(C)CCN2CCCCC2C(F)(F)F)N(C)C(=O)C(C(C)C)N(C)C(=O)C(CC(C)C)N(C)C(=O)C(CC(C)C)N(C)C(=O)C(C)NC(=O)C(C)NC(=O)C(CC(C)C)N(C)C(=O)C(C(C)C)NC(=O)C(CC(C)C)N(C)C(=O)C(C)N(C)C1=O (mixture of isomers) [Compound EB, [(3R,4R,5S)-4-Hydroxy-3-methyl-5-(methylamino)-1-(2-trifluoromethyl-piperidin-1-yl)-hexanoic acid]^1[(R)-methyl-Sar]^3 cyclosporin A] | 3.7 | > 10000 |  |  |  |
| CC[C@H]1NC(=O)[C@@H]([C@H](O)[C@H](C)CCN2CC(F)(F)OC(F)(F)C2)N(C)C(=O)[C@@H](C(C)C)N(C)C(=O)[C@@H](CC(C)C)N(C)C(=O)[C@@H](CC(C)C)N(C)C(=O)[C@H](C)NC(=O)[C@@H](C)NC(=O)[C@@H](CC(C)C)N(C)C(=O)[C@@H](C(C)C)NC(=O)[C@H](CC(C)C)N(C)C(=O)[C@@H](CO)N(C)C1=O [Compound EO] |  |  |  |  | solubility at 18 h [2]: 10 to 25 µM (≈ 13.6 to 34.1 µg/mL); Ki [1]: 13 nM; immunosuppressive potential (Calcineurin; in words, as measured by the MLR and CaN assays): more immunosuppressive potential than others |
| CCC1NC(=O)C(C(O)C(C)CCN2CCCCO2)N(C)C(=O)C(C(C)C)N(C)C(=O)C(CC(C)C)N(C)C(=O)C(CC(C)C)N(C)C(=O)C(C)NC(=O)C(C)NC(=O)C(CC(C)C)N(C)C(=O)C(C(C)C)NC(=O)C(CC(C)C)N(C)C(=O)C(C)N(C)C1=O [Compound ED, [(3R,4R,5S)-4-Hydroxy-3-methyl-5-(methylamino)-1-([1,2]oxazinan-2-yl)-hexanoic acid]^1[(R)-methyl-Sar]^3 cyclosporin A] | 3.8 | > 10000 |  |  |  |
| CCC1NC(=O)C(C(O)C(C)CCN2CCOCC2C(F)(F)F)N(C)C(=O)C(C(C)C)N(C)C(=O)C(CC(C)C)N(C)C(=O)C(CC(C)C)N(C)C(=O)C(C)NC(=O)C(C)NC(=O)C(CC(C)C)N(C)C(=O)C(C(C)C)NC(=O)C(CC(C)C)N(C)C(=O)C(C)N(C)C1=O (mixture of isomers) [Compound EC, [(3R,4R,5S)-4-Hydroxy-3-methyl-5-(methylamino)-1-(3-trifluoromethyl-morpholin-4-yl)-hexanoic acid]^1[(R)-methyl-Sar]^3 cyclosporin A] | 5.2 | > 10000 |  |  |  |
| CCC1NC(=O)C(C(O)C(C)CCN2CCCOCC2)N(C)C(=O)C(C(C)C)N(C)C(=O)C(CC(C)C)N(C)C(=O)C(CC(C)C)N(C)C(=O)C(C)NC(=O)C(C)NC(=O)C(CC(C)C)N(C)C(=O)C(C(C)C)NC(=O)C(CC(C)C)N(C)C(=O)C(COCCN(CC)CC)N(C)C1=O [Compound AD, [(3R,4R,5S)-4-Hydroxy-3-methyl-5-(methylamino)-1-N-homomorpholino-hexanoic acid]^1[(R)-2-diethylaminoethyloxymethyl-Sar]^3 cyclosporin A] |  |  | 18 | > 10000 |  |
| CC[C@H]1NC(=O)[C@@H]([C@H](O)[C@H](C)CCCC(=O)N(CC)CC)N(C)C(=O)[C@@H](C(C)C)N(C)C(=O)[C@@H](CC(C)C)N(C)C(=O)[C@@H](CC(C)C)N(C)C(=O)[C@H](C)NC(=O)[C@@H](C)NC(=O)[C@@H](CC(C)C)N(C)C(=O)[C@@H](C(C)C)NC(=O)[C@H](CC(C)C)N(C)C(=O)[C@@H](C)N(C)C1=O [Compound U, [(5R,6R,7S)-6-hydroxy-5-methyl-7-(methylamino)-1-diethylamino-1-oxo-octanoic acid]^1[(R)-methyl-Sar]^3 cyclosporin A] |  |  | 4 | > 10000 |  |
